Experimental data: US20120245343A1, “ARGININE DERIVATIVES OR SALTS THEREOF EXHIBITING THE EFFECTS OF IMPROVING SEXUAL FUNCTION, COMPOSITION FOR IMPROVING SEXUAL FUNCTION COMPRISING SAME, AND METHOD FOR PREPARING SAME” (priority 2009, published 2012)

What was measured:
[1] = test system: nNOS; experiment: Expression of nNOS in penile tissues by immunoblotting; type: in vivo; conditions: male Sprague-Dawley rats, orally administered for 7 days twice a day; AFG 200 and 400 mg/kg/day, BGE 400 mg/kg/day; vs control group; FIG. 8
Method: (§1) 8 weeks old male Sprague-Dawley rats were obtained from Orient Co., Ltd. (Korea) and used as exprimental animals. A breeding cage was conditioned with artificial lighting for 12 hours (8:00 a.m. to 8:00 p.m) and maintained at 20±3° C. The rats were provided with purified water and fed with pellet diet (Samyang diet, Korea). Food and water were not limited and supplied to the rats at a certain time of 9:00 a.m. to 10:00 a.m. every day.
(§2) 8 weeks old male Sprague-Dawley rats were allowed to be adapted to the environment of the breeding cage. […] The amount of dietary intake was measured at a certain time of 9:00 a.m. to 10:00 a.m. every day. […]
(§3) After quickly pouring liquid nitrogen into the tissues and pulverizing the tissues, proteins were extracted by RIPA lysis buffer (pH 7.4) containing 50 mM Tris-HCl, 1% NP-40, 0.25% sodium deoxycholate, 150 mM NaCl, 1 mM EDTA, 1 mM PMSF, 1 mM sodium orthovanadate, 1 mM NaF, 1 mg/mL aprotinin, 1 mg/mL leupeptin and 1 mg/mL pepstatin. After quantifying the extracted proteins using Bio-Rad protein assay kit, 30 μg and 40 μg of proteins were separated by SDS-PAGE using 8% acrylamide gel for 2 hours, and transferred to nitrocellulose membrane with being blocked by 2% BSA. […]

[2] = test system: activated eNOS; experiment: Expression of activated eNOS in endothelial cells; type: cell-based; conditions: immunoblotting, FIG. 11
Method: Endothelial cells (BAECs) previously treated with the samples were washed with cold PBS buffer (pH 7.2) twice and then treated with RIPA lysis buffer [50 mM Tris-HCl, 150 mM NaCl, 0.5% sodium deoxycholate, 1% NP 40, 1% phosphatase inhibitor cocktail, 1 mM PMSF] in 150 μL/well to collect cell extracts. The protein content of the collected cell extracts was determined using Bradford assay, and then 25 μg of the protein was separated by using SDS-PAGE and transferred to nitrocellulose membrane. The nitrocellulose membrane was blocked with 1% BSA (Bovine serum albumin) solution at room temperature for 1 hour, and reacted with a primary antibody specific for the target protein at 4° C. for 12 hours. Upon completion of the reaction, the nitrocellulose membrane was washed with TBST (10 mM Tris-HCl, 150 mM NaCl, 0.05% NP 40) several times, and reacted with a secondary antibody binding to HRP (Horse radish peroxidase) at room temperature for 1 hour. After that, the nitrocellulose membrane was washed again with TBST and the target protein was confirmed by using ECL solution. To identify the target protein, luminesent image analyzer (LAS 4000 mini) were used. […] It is possible to produce nitric oxide (NO) when eNOS is phosphorylated to be activated. […]

[3] = test system: nitric oxide (NO); experiment: Measurement of nitric oxide (NO) in penile tissues; type: in vivo; conditions: male Sprague-Dawley rats, orally administered for 7 days twice a day; AFG 200 and 400 mg/kg/day, BGE 400 mg/kg/day; vs control group; FIG. 9
Method: as §1
8 weeks old male Sprague-Dawley rats were allowed to be adapted to the environment of the breeding cage. Depending on their body weight, the rats were divided into 5 groups of control group (saline), Viagra® group (1.7 mg/kg/day), two AFG groups (200 and 400 mg/kg/day) and BGE (conventional red ginseng) group (400 mg/kg/day) and orally administered for 7 days twice a day (in the morning and in the afternoon). The amount of dietary intake was measured at a certain time of 9:00 a.m. to 10:00 a.m. every day. […]
The amount of the produced nitric oxide was measured by a method which slightly modifies methods proposed by Park (J. Ethnopharmacol, 2004) and Knowles (Biochem. J, 1990). […]
For 200 μL of the supernatant, the fluorescence intensity of DAF was measured at 485 nm of excitation wavelength and at 535 nm of emission wavelength using a fluorescence reader (TECAN Trading AG, Switzerland).

[4] = test system: arginase; conditions: for Km: read-out: Km of arginase; for Km / Vmax of arginase: substrate of arginase, 55° C., 10 minutes, pH 10.0
Method: 20 mU arginase was dissolved in 150 μL of 0.1M carbonate-bicarbonate buffer (pH 10.0). […] After that, 750 μL of acetic acid was added to the reaction mixture so as to stop the reaction. Then, 250 μL of ninhydrin solution was added to the mixture and was reacted at 100° C. for 1 hour. The reaction mixture was cooled and the absorbance was measured at 515 nm using ELISA reader.
A standard curve was created by using 0.01-10 μM of L-ornithine, and then the arginase activity was calculated and represented from the ornithine standard curve.

[5] = test system: cGMP; experiment: Measurement of cGMP in penile tissues; type: in vivo; conditions: male Sprague-Dawley rats, FIG. 10
Method: as §1
8 weeks old male Sprague-Dawley rats were allowed to be adapted to the environment of the breeding cage. Depending on their body weight, the rats were divided into 5 groups of control group (saline), Viagra® group (1.7 mg/kg/day), two AFG groups (200 and 400 mg/kg/day) and BGE (conventional red ginseng) group (400 mg/kg/day) and orally administered for 7 days twice a day (in the morning and in the afternoon). The amount of dietary intake was measured at a certain time of 9:00 a.m. to 10:00 a.m. every day.
After the end of feeding period, the rats were fasted for 12 hours and anesthetized with […]. […]
The concentration of cGMP was measured by a method which slightly modifies methods proposed by Park (J. Ethnopharmacol, 2004) and Knowles (Biochem. J, 1990). […]
A standard curve was created by using 0.8-50 pmol/mL of cGMP, and the concentration of cGMP was measured by cGMP ELISA kit (Aassay Designs, Inc., Michigan). […]

[6] = test system: eNOS; experiment: Expression of eNOS in penile tissues by immunoblotting; type: in vivo; conditions: male Sprague-Dawley rats, orally administered for 7 days twice a day; AFG 200 and 400 mg/kg/day, BGE 400 mg/kg/day; vs control group; FIG. 8
Method: as §1, §2, §3

| SMILES | expression of nNOS in the penile tissues [1] | expression of the activated eNOS in the endothelial cells (BAECs) [2] | production of nitric oxide (NO) in the penile tissues [3] | decomposition rate of arginase as compared with arginine [4] | Km [4] [µM] | Vmax of arginase [4] | concentration of cGMP in the penile tissues ([5]; orally administered for 7 days twice a day, AFG 200 and 400 mg/kg/day, BGE 400 mg/kg/day, Viagra 1.7 mg/kg/day, vs negative control group) | increase of the concentration of cGMP compared with the positive control group of Viagra ([5]; penile tissues) | expression of eNOS in the penile tissues [6] |
| --- | --- | --- | --- | --- | --- | --- | --- | --- | --- |
| NC(N)=NCCC[C@H](NC[C@@]1(O)OC[C@@H](O)[C@@H](O[C@@H]2O[C@H](CO)[C@@H](O)[C@H](O)[C@H]2O)[C@@H]1O)C(=O)O [AFG, arginyl-fructosyl-glucose] | increased | increased | increased | very low | 129 | 588 µmol/min | increased | less than the positive control group | increased |
| N=C(N)NCCC[C@H](N)C(=O)O [Arginine, L-arginine] | – | – | – | – | 12 | 1,000 μmoles/min | – | – | – |
